{
  "source": "paper PMC5238392",
  "about": "“Origin of anti-tumor activity of the cysteine-containing GO peptides and further optimization of their cytotoxic properties” (Scientific Reports, 2017)",
  "key": {"HT-1080 cells": {"system": "HT-1080 cells", "experiment": "Time-lapse microscopy and side angle light scatter, HT-1080", "assay_type": "cell-based, human", "experimental": "The data from time-lapse microscopy on HT-1080 cells provide a visual evidence of GO-203-induced apoptosis, Fig. 5 (see also Film S1). […] After 1.5 h we observe the fully developed picture of apoptosis. This is illustrated in the right panel of Fig. 5: three cells in this photograph experience blebbing, while the fourth cell located in the upper right portion of the image has undergone detachment and rounded up (it is soon to enter the blebbing phase). This time line is confirmed by the side angle light scatter data from the flow-cytometry experiment, Fig. 6C. […] This behavior reflects the onset of dynamic blebbing and the concomitant increase in the roughness of the cell surface. In this context it is worth noting that actomyosin cortex contraction and blebbing are subsequent to (and in fact driven by) caspase activation. The condensation of nucleus and cytoplasm in apoptotic cells can also contribute to the increased side scatter.\nFigure 5 Time-lapse microscopy of HT-1080 cells. (A) Cells before the addition of the peptide and (B) 1 h 20 min after the addition of 5 μM GO-203.\nFigure 6 Dynamics of (A) mitochondrial membrane potential, (B) intracellular ROS levels, and (C) cell refractive properties in suspended HT-1080 cells following the addition of 5 μM GO-203.\nThe cells were seeded into 35-mm Nunc culture dishes (Thermo Scientific, USA) at 1.2 × 10^5 cells per dish and allowed to attach for 24 h. To monitor intracellular ROS in a time-dependent manner, the cells were incubated for 30 min with 10 μM of carboxy-H2DCFDA (Invitrogen, USA), then harvested with trypsin-EDTA and suspended in a fresh medium. After that GO-203 was added directly to the suspension and cell fluorescence was measured by flow cytometry at multiple time points during the following 2 hours. The same procedure was used for mitochondria-specific fluorescent dye Rhodamine 123 (Thermo Fisher Scientific, USA), which was added to a concentration of 5 μM. The complementary side scatter measurements were conducted using 488 nm laser light. In another series of experiments, we have used the related indicator of oxidative stress, H2DCFDA (Invitrogen, USA). The experiment started by adding GO-203 to the cell growth medium; then 10 min later 5 μM of H2DCFDA has been added. After 20 min incubations with H2DCFDA, the cells were harvested with trypsin-EDTA and suspended in a fresh medium. Cell fluorescence was then immediately measured by flow cytometry. The same procedure was followed for the ROS-insensitive (control) modification of the fluorescent probe, DCFDA.\nFor live cell microscopy, HT-1080 cells were seeded into 35-mm сell imaging dish with cover glass bottom (Eppendorf, Germany) and allowed to attach for 24 h. The cell response to 5 μM GO-203 exposure was monitored using the Axio Observer. […]"}, "ZR-75-1 cells": {"system": "ZR-75-1 cells", "experiment": "FITC Annexin V / propidium iodide apoptosis assay, ZR-75-1", "assay_type": "cell-based, human", "experimental": "Figure 3 GO-203-induced apoptosis in HT-1080 and ZR-75-1 cells as assessed by FITC Annexin V (AnV) and propidium iodide (PI) double staining. (A–D) Flow cytometry histograms for the cells incubated for 4 h with 10 μM of GO-203 and the untreated (control) cells. (E–H) Apoptotic fractions in the GO-203-treated and untreated (control) cells as a function of incubation time and GO-203 concentration; color coding is explained in the legend. TEXT PRINTED IN THE PICTURE: (B) GO-203: HT-1080: IV.(1.90 %); HT-1080: III.(52.62 %); HT-1080: I.(19.45 %); HT-1080: II.(26.04 %) | (D) GO-203: ZR-75-1: IV.(8.19 %); ZR-75-1: III.(8.65 %); ZR-75-1: I.(37.84 %); ZR-75-1: II.(45.32 %)\nSimilarly fast apoptotic process is observed in ZR-75-1, although this cell line is less susceptible to the cytotoxic effect of GO-203. 4 h after administration of 10 μM dose, 39% of the cells remain healthy, 43% undergo early apoptosis, and 9% are in the late apoptosis stage. This proportion remains unchanged after 24 h. The fact that GO-203-induced apoptosis occurs rapidly in both sensitive and relatively insensitive cell lines is relevant in the context of its cytotoxic mechanism (discussed later in the text).\nAlso illustrated in Fig. 3G,H is the dose-dependent response of the treated cells. […] It is possible that apoptotic ZR-75-1 cells in quadrant II undergo disintegration instead of moving to quadrant III, Fig. 3D. Importantly, the Annexin V data are consistent with the results of the MTS assay which registers limited damage to the ZR-75-1 cells, see Fig. 2.\nThe adherent cells were rinsed with PBS, harvested using trypsin-EDTA solution and suspended in the growth medium. To analyze cell cycle phase distribution, 200 μg/ml of saponin (Fluka, USA), 250 μg/ml RNase A, and 50 μg/ml of propidium iodide (both Sigma-Aldrich, USA) were added to each sample tube, thus obtaining DNA stain buffer. After 1 h incubation at room temperature, the samples were analyzed by flow cytometry. To detect apoptosis by flow cytometry, CellEvent Caspase-3/7 Green Flow Cytometry Assay Kit (Thermo Fisher Scientific, USA) and Annexin-V FITC conjugate (BD Biosciences, USA) in combination with propidium iodide have been employed following the manufacturer’s protocols.\nCell fluorescence was measured using CytoFLEX (Beckman Coulter, USA) flow cytometer equipped with 3 lasers (405, 488 and 633 nm). Cells were gated on FSC/SSC to remove debris. Mean fluorescence intensity from 10,000 cells was acquired."}, "[1]": {"conditions": "HT-1080, 5 μM, time-lapse microscopy"}, "[2]": {"conditions": "10 μM, 4 h, representative plot Fig. 3D"}, "[3]": {"conditions": "10 μM, 4 h after administration"}},
  "data": [
    {"substance": "[R]9CQCRRKN [GO-203, in clinical trials]", "values": [
      {"measurement": "Time to fully developed picture of apoptosis", "setting": "HT-1080 cells; [1]", "result": 1.5, "unit": "h"},
      {"measurement": "Time to morphological features of apoptosis (cell contraction, membrane blebbing)", "setting": "HT-1080 cells; [1]", "result": "within the first hour"},
      {"measurement": "Time at which side angle light scatter starts to rise versus control", "setting": "HT-1080 cells; suspended HT-1080 cells, 5 μM, flow cytometry, 488 nm", "result": 30, "unit": "min"},
      {"measurement": "Onset of apoptosis after application", "setting": "HT-1080 cells; treated cells, summary statement", "result": "ca. 30 min"},
      {"measurement": "quadrant I fraction (Annexin V/PI dot plot)", "setting": "ZR-75-1 cells; [2]", "result": 37.84, "unit": "%"},
      {"measurement": "quadrant II fraction (Annexin V/PI dot plot)", "setting": "ZR-75-1 cells; [2]", "result": 45.32, "unit": "%"},
      {"measurement": "quadrant III fraction (Annexin V/PI dot plot)", "setting": "ZR-75-1 cells; [2]", "result": 8.65, "unit": "%"},
      {"measurement": "quadrant IV fraction (Annexin V/PI dot plot)", "setting": "ZR-75-1 cells; [2]", "result": 8.19, "unit": "%"},
      {"measurement": "early apoptosis (Annexin V/PI)", "setting": "ZR-75-1 cells; [3]", "result": 43, "unit": "%"},
      {"measurement": "late apoptosis stage (Annexin V/PI)", "setting": "ZR-75-1 cells; [3]", "result": 9, "unit": "%"},
      {"measurement": "healthy cells (Annexin V/PI)", "setting": "ZR-75-1 cells; 10 μM, 4 h after administration (unchanged after 24 h)", "result": 39, "unit": "%"},
      {"measurement": "viable cells at highest dose (Annexin V/PI)", "setting": "ZR-75-1 cells; 20 μM", "result": "a large proportion of the cells remains viable"}
    ]}
  ]
}
